Measurements reported in patent publication US11007178B2, “Methods and uses of Nampt activators for treatment of diabetes, cardiovascular diseases, and symptoms thereof” (University of South Florida, priority 2016, dated 2021).

How the values were obtained:
[1] = test system: H9C2 cardiomyoblasts; assay: NAD levels in H9C2 cardiomyoblasts; type: cell-based; conditions: H9C2, 10 μM, vs vehicle (1% DMSO) or FK866 (10 nM)
Text: Nampt, a rate-limiting enzyme, controls the level of NAD+ and protects the heart by stimulating SIRT1. […] The data presented in this Example coupled with previous evidence of the ability of P7C3 to bind and activate Nampt unequivocally indicate that the rescue of arrythmogenic and myopathy changes noted in P7C3 treated db/db mice are in due to activation of Nampt activation, NAD elevation, and stimulation of Nampt-SIRT1 axis.

[2] = test system: db/db mice; assay: Blood sugar level in diabetic mouse model over 4 weeks; type: in vivo; conditions: 10 mg/kg i.p. daily
Description: (§1) To determine the effect of the Nampt activator on blood sugar control and cardiac electrical activity in diabetics, we examined the effects of P7C3,in a diabetic mouse model (db/db mice). Briefly, wild-type or db/db mice were treated with a Nampt activator (P7C3) or control. The Nampt activator or control was administered daily via intraperitoneal (i.p.) injection at about 10 mg/kg.

[3] = test system: pancreatic islet β-cells of diabetic mice; assay: Immunohistochemical staining for insulin in pancreatic beta-islets; type: in vivo; conditions: vs vehicle
[4] = test system: diabetic hearts (db/db); assay: Langendorff myocardial ischemia-reperfusion injury, diabetic hearts; set-up: species or system mice; conditions: 4 week treated diabetic hearts, 45 min ischemia, 60 min reperfusion, vs vehicle
[5] = test system: db/db mice; assay: Serum insulin levels by ELISA; type: in vivo; conditions: diabetic mice, about 10 mg/kg i.p., 4 weeks, vs vehicle
Description: A Nampt activator, P7C3, was administered and various effects were evaluated. […] Briefly, the dose of P7C3 was about 10 mg/kg and administered i.p. to diabetic mice and the effect on serum insulin, insulin tolerance, blood glucose, and pancreatic beta cell number and insulin granulation in the islets of a diabetic model pancreas. The serum from P7C3 or vehicle treated diabetic mice and measured the insulin levels by ELISA assay.

[6] = test system: wild-type C57 hearts; assay: Langendorff myocardial ischemia-reperfusion injury, wild-type hearts; set-up: species or system mouse; conditions: 10 μM, 45 min ischemia, 60 min reperfusion, vs vehicle
Description: Following a 45 minutes of ischemia in the wild type mouse hearts we utilized P7C3 and allowed reperfusion for first 30 minutes of reperfusion period during a 60 minutes reperfusion phase. […] Red portion of the stain in FIGS. 12A and 12C can indicate viable tissue, where as white or pale colored areas are infarcted areas. Qualification for the infract size is depicted in the accompanying bar graphs in each panel. ***p<0.0001, **p<0.001, vehicle vs. P7C3 in each group.

[7] = test system: db/db mice; assay: Echocardiography, cardiomyopathy and cardiac performance; type: in vivo
Text: A similar increase (p<0.05) in pulmonary VTI was also noted in the 20 week db/db mice when compared with WT controls. […] A similar increase in M-mode short axis measurements in 20 week db/db was also noted in left ventricular internal dimension (LVID) at both systole and diastole. […] This increase in LVID is indicative of increased heart size when compared with Wt controls.

[8] = test system: diabetic mice; assay: Insulin tolerance test (ITT); type: in vivo; conditions: about 10 mg/Kg daily, 4 weeks, insulin 5 U/Kg i.v.
Description: Diabetic mice were utilized and treated with P7C3 for 4 weeks with a daily dose of about 10 mg/Kg P7C3 or vehicle. Thereafter, ITT (insulin tolerance test) was performed by injecting insulin 5 U/Kg body weight i.v. Blood glucose levels were monitored as shown in FIGS. 9A-9B.

[9] = test system: db/db mice; assay: ECG, cardiac electrical abnormalities; type: in vivo; conditions: 20 week old, vs vehicle treated db/db
Description: as §1

[10] = test system: pancreatic islet β-cells of diabetic mice; assay: Pancreatic islets and beta cells, Gomori staining; type: in vivo; conditions: 10 mg/Kg daily, 4 weeks, vs vehicle
Description: Additionally diabetic mice were treated with P7C3 for 4 weeks with daily dose of 10 mg/Kg with P7C3 or vehicle. Thereafter, the pancreas was collected at necropsy and cryosectioned, the cross sections were stained for visualizing the damage of β-cells in diabetes and rescue by P7C3. […] P<0.01. ** indicates […] between Vehicle and P7C3 groups and *** indicates P<0.001 Vehicle and P7C3 groups as determined by a one-way ANOVA followed by Tukey test.

[11] = test system: db/db mice; assay: Intra-peritoneal glucose tolerance test (IPGTT); type: in vivo; conditions: 10 mg/kg, 4 weeks, vs vehicle
Description: The diabetic model was treated with a vehicle or P7C3 for 4 weeks. Then a glucose tolerance test was conducted.
as §1
An insulin tolerance test was also performed after 4 weeks of Nampt activator treatment as previously described.

[12] = test system: db/db mice; assay: NADH/NAD ratio in diabetic model; type: in vivo; conditions: 4 weeks treatment, vs vehicle
[13] = test system: Wt mouse heart; assay: Ex vivo lactate perfusion of heart, ventricular arrhythmia; conditions: 2 out of 5 mice, control 0%
Text: Cardiac elevation of NADH through ex vivo lactate perfusion of Wt mouse heart increases the incidence of ventricular arrhythmia by 40% (2 out of 5 mice) (FIGS. 5A and 5B).

[14] = diabetic mice, 4 week treatment

Compound: NC(=O)c1ccc[n+]([C@@H]2O[C@H](COP(=O)([O-])O)[C@@H](O)[C@H]2O)c1 [NMN, nicotinamide mononucleotide, reference compound]
- NAD levels [1]: significantly (P<0.01) increases

Compound: OC(CNc1ccccc1)Cn1c2ccc(Br)cc2c2cc(Br)ccc21 (stereo not shown) [P7C3]
- net reduction in blood sugar levels [2]: 173.2 mg/dL
- blood sugar level ([2]; at 4 weeks, vehicle db/db 467.5±34.2, wild type 209.8±6.1): 214.5 ± 16.9 mg/dL
- insulin positive beta-cells per islet area [3]: increased insulin production
- NAD levels [1]: significantly (P<0.01) increases
- protection from myocardial ischemia-reperfusion injury (infarct size) [4]: cardioprotective effect
- serum insulin levels [5]: increased
- protection from myocardial ischemia-reperfusion injury (infarct size) [6]: cardioprotective effect
- cardiomyopathy ([7]; 4 week treatment): partial rescue
- IVRT (isovolumic relaxation time) ([7]; P7C3 treated diabetic mice): improvement in cardiac performance
- MPI (myocardial performance index) ([7]; P7C3 treated diabetic mice): improvement in cardiac performance
- LV mass ([7]; db/db mice): smaller increase
- aortic VTI ([7]; db/db mice, 4-week treatment): much less of an increase
- pulmonary VTI ([7]; db/db mice, 4-week treatment): much less of an increase
- left ventricular internal dimension (LVID) ([7]; db/db mice, particularly at the diastole): much less increase
- % ejection fraction [7, 14]: significantly (p<0.05) decreased
- % fractional shortening [7, 14]: significantly (p<0.05) decreased
- insulin sensitivity (insulin tolerance test, blood glucose) [8]: improved insulin sensitivity
- QRS interval [9]: significantly reduced (p<0.001) back to Wt levels
- QT interval [9]: significantly reduced (p<0.001) back to Wt levels
- QTc interval [9]: significantly reduced (p<0.001) back to Wt levels
- beta cells per section [10]: significant improvement
- number of beta cells per islet [10]: improved
- number of pancreatic islets in a unit area of the pancreas [10]: improved
- glucose tolerance after 2 hour glucose load [11]: increased glucose tolerance
- insulin release after glucose load [11]: significantly (P<0.001) increased
- NADH/NAD ratio [12]: significantly attenuated

Compound: lactate
- incidence of ventricular arrhythmia [13]: 40%
